In PubChem BioAssay AID328 (DTP/NCI, 2004):
Where “and” joins values, the source holds several entries; their conditions need not be identical. Identical values can stand only once. Inconclusive results and toxic doses are left out. How the source made its calls: active means survival T/C of 150% or more; inactive means T/C below 125% in these data.

System: BDF1 mice, P388 leukemia ip, median survival T/C
Assay: NCI In Vivo Anticancer Drug Screen. Data for tumor model P388 Leukemia (intraperitoneal) in B6D2F1 (BDF1) mice
Conditions: endpoint: median survival time, higher = longer survival
Outline: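 Transplantable tumour in mice; compound vs vehicle dosing; survival scored; ratio of treated to control reported.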

[1] = dose: 3.13 mg/kg/injection, schedule: Q01DX009 (ip), vehicle: saline
[2] = dose: 100.0 mg/kg/injection, schedule: Q04DX003 (ip), vehicle: saline with Tween-80
[3] = dose: 200.0 mg/kg/injection, schedule: Q04DX003 (ip), vehicle: saline with Tween-80

Measured: T/C

CCOC(=O)NC(=S)n1ncnc1N
inactive: dose: 8.75 mg/kg/injection, schedule: Q01DX009 (ip), vehicle: saline 95 % of control | dose: 12.5 mg/kg/injection, schedule: Q04DX003 (ip), vehicle: Klucel (hydroxypropylcellulose) (HPC) 110 % of control | dose: 17.5 mg/kg/injection, schedule: Q01DX009 (ip), vehicle: saline 105 % of control | dose: 25.0 mg/kg/injection, schedule: Q04DX003 (ip), vehicle: Klucel (hydroxypropylcellulose) (HPC) 100 % of control | dose: 35.0 mg/kg/injection, schedule: Q01DX009 (ip), vehicle: saline 90 % of control | dose: 50.0 mg/kg/injection, schedule: Q04DX003 (ip), vehicle: Klucel (hydroxypropylcellulose) (HPC) 100 % of control

CS(=O)(=O)CC(O)(c1ccc(Cl)cc1)c1ccccn1 (stereo not drawn)
inactive: dose: 50.0 mg/kg/injection, schedule: Q01DX009 (ip), vehicle: saline with Tween-80 91 % of control | dose: 100.0 mg/kg/injection, schedule: Q01DX009 (ip), vehicle: saline with Tween-80 91 % of control | dose: 200.0 mg/kg/injection, schedule: Q01DX009 (ip), vehicle: saline with Tween-80 97 % of control

C=C1CC(OC(C)=O)C2C(OC(=O)C2(C)OC(=O)/C(C)=C\C)C2C(C)=CC(=O)C12 (stereo not drawn)
inactive: dose: 4.0 mg/kg/injection, schedule: Q01DX009 (ip), vehicle: Klucel (hydroxypropylcellulose) (HPC) 100 % of control | dose: 8.0 mg/kg/injection, schedule: Q01DX009 (ip), vehicle: Klucel (hydroxypropylcellulose) (HPC) 109 % of control

CC(=O)OC1C(CO)OC2C1Oc1nc(=N)c(F)cn12 (stereo not drawn)
inactive: [1] 92 % of control and 102 % of control
active: dose: 1.56 mg/kg/injection, schedule: Q01DX009 (ip), vehicle: saline 176 % of control

CC(=O)c1ccc[n+](Cc2c(Cl)cccc2Cl)c1
inactive: [1] 93 % of control | dose: 6.25 mg/kg/injection, schedule: Q01DX009 (ip), vehicle: saline 92 % of control | dose: 12.5 mg/kg/injection, schedule: Q01DX009 (ip), vehicle: saline 92 % of control

CC(C)C1(C(=O)O)SCCCS1
inactive: dose: 50.0 mg/kg/injection, schedule: Q04DX003 (ip), vehicle: alcohol 115 % of control | dose: 100.0 mg/kg/injection, schedule: Q04DX003 (ip), vehicle: alcohol 115 % of control | dose: 200.0 mg/kg/injection, schedule: Q04DX003 (ip), vehicle: alcohol 105 % of control | dose: 400.0 mg/kg/injection, schedule: Q04DX003 (ip), vehicle: alcohol 105 % of control

C[N-]c1nnnn1C.[Au+].c1ccc([PH+](c2ccccc2)c2ccccc2)cc1
inactive: dose: 6.25 mg/kg/injection, schedule: Q01DX009 (ip), vehicle: saline with Tween-80 108 % of control | dose: 12.5 mg/kg/injection, schedule: Q01DX009 (ip), vehicle: saline with Tween-80 108 % of control | dose: 25.0 mg/kg/injection, schedule: Q01DX009 (ip), vehicle: saline with Tween-80 108 % of control

O=C(O)CCC(=O)/C=C1/Nc2ccccc2C1=O
inactive: [2] 110 % of control | [3] 120 % of control

O=C1OCC2CC3c4ccccc4C12c1ccccc13 (stereo not drawn)
inactive: dose: 200.0 mg/kg/injection, schedule: Q01DX001 (ip), vehicle: Klucel (hydroxypropylcellulose) (HPC) 105 % of control | dose: 400.0 mg/kg/injection, schedule: Q01DX001 (ip), vehicle: Klucel (hydroxypropylcellulose) (HPC) 95 % of control

CNC(=O)Oc1coc(CCl)cc1=O
inactive: dose: 12.0 mg/kg/injection, schedule: Q01DX009 (ip), vehicle: Klucel (hydroxypropylcellulose) (HPC) 95 % of control | dose: 16.5 mg/kg/injection, schedule: Q01DX009 (ip), vehicle: saline 108 % of control | dose: 18.0 mg/kg/injection, schedule: Q01DX009 (ip), vehicle: Klucel (hydroxypropylcellulose) (HPC) 86 % of control | dose: 25.0 mg/kg/injection, schedule: Q01DX009 (ip), vehicle: saline 120 % of control | dose: 27.0 mg/kg/injection, schedule: Q01DX009 (ip), vehicle: Klucel (hydroxypropylcellulose) (HPC) 100 % of control | dose: 37.5 mg/kg/injection, schedule: Q01DX009 (ip), vehicle: saline 116 % of control | dose: 40.0 mg/kg/injection, schedule: Q01DX009 (ip), vehicle: Klucel (hydroxypropylcellulose) (HPC) 118 % of control | dose: 60.0 mg/kg/injection, schedule: Q01DX009 (ip), vehicle: Klucel (hydroxypropylcellulose) (HPC) 118 % of control

COc1ccccc1NC(=O)Nc1ccc(C(=O)OCC(C)C)cc1
inactive: dose: 50.0 mg/kg/injection, schedule: Q04DX003 (ip), vehicle: saline with Tween-80 108 % of control | [2] 91 % of control | [3] 100 % of control
